From ChEMBL document CHEMBL1144274, “Novel spiroanellated 1,2,4-trioxanes with high in vitro antimalarial activities” (Bioorg Med Chem Lett, 2005)
Converted amounts (≈) assume the structure as drawn.

Tests used:
[1] = In vitro cytotoxicity against mammalian L-6 cell line; assay type: functional, cell-based; conditions: L6
Plasmodium falciparum [2] = experiment: In vitro inhibition of Plasmodium falciparum K1 (0.00054 ug/mL); assay type: functional, organism-based
Plasmodium falciparum [3] = experiment: In vitro inhibition of Plasmodium falciparum K1 (0.0024 ug/mL); assay type: functional, organism-based
Plasmodium falciparum [4] = experiment: In vitro inhibition of Plasmodium falciparum K1 (0.0013 ug/mL); assay type: functional, organism-based
Plasmodium falciparum [5] = experiment: In vitro inhibition of Plasmodium falciparum K1 (0.0008 ug/mL); assay type: functional, organism-based
Plasmodium falciparum [6] = experiment: In vitro inhibition of Plasmodium falciparum K1 (0.0088 ug/mL); assay type: functional, organism-based
Plasmodium falciparum [7] = experiment: In vitro inhibition of Plasmodium falciparum K1 (0.00065 ug/mL); assay type: functional, organism-based
Plasmodium falciparum [8] = experiment: In vitro inhibition of Plasmodium falciparum K1 (0.2253 ug/mL); assay type: functional, organism-based

Q: For O[C@H](c1cc(C(F)(F)F)nc2c(C(F)(F)F)cccc12)[C@@H]1CCCCN1 [MEFLOQUINE], which IC50 [1] is on record?
A: 1.9 µg/mL (≈ 5.02 µM)

Q: Which IC50 [1] does the source give for C=C(C)C1OO[C@]2(O[C@H]1C1CC1)[C@H]1CC3C[C@@H](C1)C[C@H]2C3 (stereo partly drawn) here?
A: 0.74 µg/mL (≈ 2.55 µM)

Q: What about the IC50 (Plasmodium falciparum [2]) of the same molecule?
A: 1.9 nM

Q: With C=C(C)[C@@H]1OOC2(CCCC2)O[C@H]1C(C)C as the molecule, how does the IC50 (Plasmodium falciparum [3]) read?
A: 10.6 nM

Q: What about the IC50 [1] of the same molecule?
A: 0.82 µg/mL (≈ 3.62 µM)

Q: Which results are given for C=C(C)C1OO[C@]2(O[C@H]1C)[C@H]1CC3C[C@@H](C1)C[C@H]2C3 (stereo partly drawn)?
A: IC50 (Plasmodium falciparum [4]): 4.9 nM; IC50 [1]: 1.7 µg/mL (≈ 6.43 µM)

Q: Which IC50 (Plasmodium falciparum [5]) does the source give for C[C@@H]1CC[C@H]2[C@@H](C)C(=O)O[C@@H]3O[C@@]4(C)CC[C@@H]1[C@]32OO4 [ARTEMISININ] here?
A: 2.8 nM

Q: Which IC50 (Plasmodium falciparum [6]) does the source give for C=C(C)[C@@H]1OOC2(CCCC2)O[C@H]1C(C)(C)C here?
A: 36.6 nM

Q: And the IC50 [1]?
A: 3.7 µg/mL (≈ 15.4 µM)

Q: Which results are given for C=C(C)[C@@H]1OOC2(CCCCC2)O[C@H]1C?
A: IC50 (Plasmodium falciparum [7]): 3.1 nM; IC50 [1]: 0.46 µg/mL (≈ 2.17 µM)

Q: With C=C(C)[C@@H]1OOC(C)(C)O[C@H]1C as the molecule, how does the IC50 (Plasmodium falciparum [8]) read?
A: 1310 nM
